The values below are quoted from earlier work in PMC6986806 (Nature chemical biology, 2020).

This series concerns GluN1/GluN2D.

Structures are written as SMILES.

As to `COc1ccc(OCC2c3cc(OC)c(OC)cc3CCN2C(=O)c2cccc(Cl)c2)cc1` (stereo not shown) [CIQ], the “effect on GluN1/GluN2D unitary current” value is “no effect”.
